Literature values in patent publication US20050208134A1, “Biocompatible polymeric beads and use thereof” (priority 2004, published 2005).

Conditions: humans, administered orally

O=C(CC1NCCCC1O)Cn1cnc2cc(Br)c(Cl)cc2c1=O (stereo not shown) [halofuginone]
maximum tolerated dose with no adverse effects observed: 1 mg/day
